Measured values: the supplement of paper PMC10307832

These cell lines were tested with C(C(=O)C(=O)O)Br [Bromopyruvate] + CS(=O)(=O)CCNCc1ccc(-c2ccc3ncnc(Nc4ccc(OCc5cccc(F)c5)c(Cl)c4)c3c2)o1 [Lapatinib] (partner 2 µM) (assay: relative viability (nuclei count vs DMSO), 5 days (fraction); higher = more cells survive). Settings: first compound 100 µM.
In short: (§1)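 Lung cancer cell lines were seeded in 1536-well plates and dosed by pin tool the next day, with either a single drug or a fixed anchor-drug dose combined with five library-drug doses (not always all listed) spaced in √10 steps. Five days later, one step fixed the cells and stained their nuclei (final 0.05% Triton X-100, 1% formaldehyde, 1 ug/ml Hoechst), and nuclei were counted on 4× images. Relative viability is the nuclei count in treated wells divided by the count in vehicle wells, and each value is the median of duplicate plates.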
Cell Line SK-MES-1 has a relative viability of 0.465. For H3255, the relative viability was 0.273. In the case of COR-L23, the relative viability is reported as 0.87. COR-L 105 showed a relative viability of 0.392. Cell Line IA-LM has a relative viability of 0.617. Cell Line LOU-NH91 has a relative viability of 0.824. In the case of NCI-H2170, the relative viability is reported as 0.293. NCI-H3122 was tested, and the relative viability was 1.01. HOP-62 showed a relative viability of 1.02. HCC-44 gave a relative viability of 1.02. A549 was tested, and the relative viability was 1. In the case of LU99A, the relative viability is reported as 1.09. For BEN, the relative viability was 0.649. NCI-H1395 was tested, and the relative viability was 0.976. For NCI-H1299, the relative viability was 0.958. NCI-H1793 was tested, and the relative viability was 0.59.

What follows are cell lines tested with CC(O)(CS(=O)(=O)c1ccc(F)cc1)C(=O)Nc1ccc(C#N)c(C(F)(F)F)c1 [Bicalutamide] + COc1cccc2cc(-c3nc([C@H]4CC[C@H](C(=O)O)CC4)n4ncnc(N)c34)[nH]c12 [OSI-027] (partner 0.5 µM) in the same assay as above. Settings: first compound 0.08 µM.
In short: as §1
Cell Line NCI-H522 has a relative viability of 0.726. Cell Line NCI-H1623 has a relative viability of 0.43. For NCI-H838, the relative viability was 0.435. Cell Line NCI-H1650 has a relative viability of 0.71. NCI-H2009 gave a relative viability of 0.756. Work on NCI-H1993 yielded a relative viability of 0.479. With PC-14 the relative viability was 0.825. Work on LCLC-103H yielded a relative viability of 0.464. With NCI-H596 the relative viability was 0.854. NCI-H2228 showed a relative viability of 0.517. Work on EMC-BAC-2 yielded a relative viability of 0.404. Work on NCI-H2087 yielded a relative viability of 0.598. HCC-366 gave a relative viability of 0.955. NCI-H1666 gave a relative viability of 0.911. NCI-H647 showed a relative viability of 0.543. Work on LK-2 yielded a relative viability of 0.195. Cell Line NCI-H2126 has a relative viability of 0.681. NCI-H2342 gave a relative viability of 0.629. SK-MES-1 showed a relative viability of 0.601. With H3255 the relative viability was 0.525. In the case of COR-L23, the relative viability is reported as 0.814. COR-L 105 showed a relative viability of 0.644. LOU-NH91 showed a relative viability of 0.768. Cell Line ChaGo-K-1 has a relative viability of 0.566. NCI-H2170 was tested, and the relative viability was 0.765. Cell Line NCI-H3122 has a relative viability of 0.951. Work on HOP-62 yielded a relative viability of 0.927. In the case of HCC-44, the relative viability is reported as 0.723. With SW 900 the relative viability was 0.498. For LU99A, the relative viability was 0.282. In the case of BEN, the relative viability is reported as 0.265. NCI-H441 showed a relative viability of 0.689. Cell Line NCI-H1395 has a relative viability of 0.781. Cell Line NCI-H1793 has a relative viability of 0.278.

Same assay, conditions: first compound 0.253 µM
Cell Line NCI-H522 has a relative viability of 0.685. With NCI-H1623 the relative viability was 0.447. Cell Line NCI-H838 has a relative viability of 0.333. NCI-H1650 was tested, and the relative viability was 0.552. For NCI-H2009, the relative viability was 0.641. With NCI-H1993 the relative viability was 0.594. In the case of PC-14, the relative viability is reported as 0.697. Work on LCLC-103H yielded a relative viability of 0.425. With NCI-H596 the relative viability was 0.659. NCI-H2228 gave a relative viability of 0.756. In the case of EMC-BAC-2, the relative viability is reported as 0.374. Work on NCI-H2087 yielded a relative viability of 0.512. Cell Line HCC-366 has a relative viability of 0.848. With NCI-H1666 the relative viability was 0.866. NCI-H647 gave a relative viability of 0.628. With LK-2 the relative viability was 0.189. NCI-H2126 showed a relative viability of 0.619. NCI-H2342 gave a relative viability of 0.593. With SK-MES-1 the relative viability was 0.607. In the case of H3255, the relative viability is reported as 0.591. COR-L23 showed a relative viability of 0.751. Work on COR-L 105 yielded a relative viability of 0.555. LOU-NH91 gave a relative viability of 0.659. With ChaGo-K-1 the relative viability was 0.48. Cell Line NCI-H2170 has a relative viability of 0.636. Work on NCI-H3122 yielded a relative viability of 0.905. HOP-62 gave a relative viability of 0.844. HCC-44 showed a relative viability of 0.403. Cell Line SW 900 has a relative viability of 0.531. LU99A was tested, and the relative viability was 0.258. Work on BEN yielded a relative viability of 0.299. Work on NCI-H1648 yielded a relative viability of 0.299. NCI-H441 was tested, and the relative viability was 0.585. For NCI-H1395, the relative viability was 0.538. Work on NCI-H1793 yielded a relative viability of 0.238.

Same assay, conditions: first compound 0.8 µM
With NCI-H522 the relative viability was 0.775. For NCI-H1623, the relative viability was 0.487. With NCI-H838 the relative viability was 0.449. Cell Line NCI-H1650 has a relative viability of 0.744. Cell Line NCI-H2009 has a relative viability of 0.74. Cell Line NCI-H1993 has a relative viability of 0.523. Work on PC-14 yielded a relative viability of 1.6. LCLC-103H showed a relative viability of 0.476. In the case of NCI-H596, the relative viability is reported as 0.845. With NCI-H2228 the relative viability was 0.811. With EMC-BAC-2 the relative viability was 0.364. NCI-H2087 showed a relative viability of 0.579. In the case of HCC-366, the relative viability is reported as 1.08. NCI-H1666 gave a relative viability of 0.916. NCI-H647 showed a relative viability of 0.79. LK-2 showed a relative viability of 0.194. NCI-H2126 showed a relative viability of 0.673. NCI-H2342 showed a relative viability of 0.63. SK-MES-1 was tested, and the relative viability was 0.665. In the case of COR-L23, the relative viability is reported as 0.955. Cell Line COR-L 105 has a relative viability of 0.614. LOU-NH91 showed a relative viability of 0.736. ChaGo-K-1 showed a relative viability of 0.631. NCI-H2170 showed a relative viability of 0.668. NCI-H3122 was tested, and the relative viability was 1.25. Cell Line HOP-62 has a relative viability of 0.956. HCC-44 gave a relative viability of 0.66. Work on SW 900 yielded a relative viability of 0.572. LU99A showed a relative viability of 0.345. BEN showed a relative viability of 0.274. With NCI-H1648 the relative viability was 0.29. In the case of NCI-H441, the relative viability is reported as 0.669. In the case of NCI-H1395, the relative viability is reported as 0.76. Cell Line NCI-H1793 has a relative viability of 0.302.

Same assay, conditions: first compound 2.53 µM
For NCI-H522, the relative viability was 0.641. NCI-H1623 gave a relative viability of 0.531. NCI-H838 gave a relative viability of 0.36. With NCI-H1650 the relative viability was 0.649. Work on NCI-H2009 yielded a relative viability of 0.347. Work on NCI-H1993 yielded a relative viability of 0.511. For PC-14, the relative viability was 0.606. LCLC-103H showed a relative viability of 0.451. NCI-H596 showed a relative viability of 0.763. NCI-H2228 was tested, and the relative viability was 0.603. EMC-BAC-2 was tested, and the relative viability was 0.246. NCI-H2087 showed a relative viability of 0.572. Cell Line HCC-366 has a relative viability of 0.718. NCI-H1666 gave a relative viability of 0.831. With NCI-H647 the relative viability was 0.585. With LK-2 the relative viability was 0.207. With NCI-H2126 the relative viability was 0.755. In the case of NCI-H2342, the relative viability is reported as 0.551. With SK-MES-1 the relative viability was 0.491. Work on H3255 yielded a relative viability of 0.498. For COR-L23, the relative viability was 0.705. COR-L 105 showed a relative viability of 0.572. Work on LOU-NH91 yielded a relative viability of 0.726. ChaGo-K-1 showed a relative viability of 0.516. In the case of NCI-H2170, the relative viability is reported as 0.705. With NCI-H3122 the relative viability was 0.881. Cell Line HOP-62 has a relative viability of 0.785. Work on HCC-44 yielded a relative viability of 0.477. In the case of SW 900, the relative viability is reported as 0.347. LU99A gave a relative viability of 0.233. Work on BEN yielded a relative viability of 0.276. NCI-H1648 showed a relative viability of 0.225. For NCI-H441, the relative viability was 0.534. NCI-H1395 gave a relative viability of 0.454. Work on NCI-H1793 yielded a relative viability of 0.269.

What follows are cell lines tested with C(C(=O)C(=O)O)Br [Bromopyruvate] + C[C@]1(O)C[C@@H](c2nc(-c3ccc4ccc(-c5ccccc5)nc4c3)c3c(N)nccn32)C1 [Linsitinib] (partner 1 µM) in the same assay as above. Settings: first compound 1 µM.
In short: as §1
With NCI-H838 the relative viability was 0.966. EBC-1 gave a relative viability of 0.78. Cell Line NCI-H1703 has a relative viability of 0.602. Cell Line NCI-H2009 has a relative viability of 1.16.
